Here are results for ten molecules from ChEMBL document CHEMBL1201862, “PubChem BioAssay data set” (2004).

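Growth conditions: 96-well plates. Treatment: test compound, 48 hours, 5 concentrations. Analysis: linear interpolation between bracketing concentrations; unreached endpoints set to highest concentration. GI50 marks 50% less growth.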 Calls of active or inactive are those of the source. Cut-off read from the data, not from the text of the source: active = GI50 up to about 1.1 µM and inactive = higher. Where a SMILES comes first, the peptide text is derived from it. [ ]: non-standard residue; d: D form. The star is where a group is joined. Phe(4-NO2) = N[CH](Cc1ccc([N+](=O)[O-])cc1)C(=O)O; Cbz = O=C(OCc1ccccc1)*

Test systems include MCF7; RPMI-8226; HCC 2998; IGROV-1; COLO 205; SF-295; MDA-N; NCI-H460; EKVX; SW-620; U-251; MDA-MB-435; UACC-62; ACHN; NCI-H522; HCT-116; NCI-H23; M14; MOLT-4; CCRF-CEM.
Test in all cases: NCI anticancer screen, dose series, 48 h

Turning to `Cc1ccc(/C(C#N)=C/c2cccc([N+](=O)[O-])c2)cc1`, the GI50 in the experiment with MCF7 was > 100 µM (inactive); with RPMI-8226 it was > 100 µM (inactive); in the experiment with HCC 2998, > 100 µM (inactive); in the experiment on IGROV-1, 80.5 µM (inactive); in the experiment with COLO 205 it was > 100 µM (inactive); in the experiment on SF-295 it was 24.4 µM (inactive). The GI50 was > 100 µM (inactive) in the experiment on MDA-N; > 100 µM (inactive) in the experiment on NCI-H460; 29.5 µM (inactive) with EKVX; > 100 µM (inactive) in the experiment on SW-620; 46.7 µM (inactive) in the experiment on U-251; > 100 µM (inactive) with MDA-MB-435. Besides, the GI50 with UACC-62 is 71.1 µM (inactive); in the experiment on ACHN, > 100 µM (inactive); in the experiment on NCI-H522, > 100 µM (inactive); in the experiment with HCT-116, 76.2 µM (inactive); with NCI-H23, > 100 µM (inactive); in the experiment with M14, > 100 µM (inactive).
Turning to `COc1cc(C(=O)O)c([N+](=O)[O-])c(OC)c1OC`, the GI50 with MCF7, with RPMI-8226, in the experiment with HCC 2998, in the experiment with IGROV-1, in the experiment with MOLT-4 and with COLO 205 was > 100 µM (inactive) throughout. For the same molecule, the GI50 in the experiment with SF-295, in the experiment on MDA-N, in the experiment with NCI-H460, with EKVX, with SW-620 and in the experiment on U-251 was > 100 µM (inactive) each time. For the same molecule, the GI50 in the experiment with MDA-MB-435, in the experiment with UACC-62, in the experiment on ACHN, with NCI-H522, in the experiment with HCT-116 and in the experiment with NCI-H23 was > 100 µM (inactive) each time. The GI50 in the experiment on M14 was > 100 µM (inactive).
For `CC(N/N=C(\S)N1CCN(c2ccccn2)CC1)c1cccc[n+]1[O-]` (stereo unspecified), the GI50 is 13.2 µM (inactive) in the experiment with MCF7; 21.1 µM (inactive) with HCC 2998; 43.8 µM (inactive) with IGROV-1; 2.58 µM (inactive) in the experiment on MOLT-4; 10.5 µM (inactive) in the experiment on COLO 205; 12.3 µM (inactive) in the experiment on SF-295. The GI50 in the experiment with MDA-N was 18.4 µM (inactive); in the experiment on NCI-H460, 5.31 µM (inactive); in the experiment on EKVX, 6.47 µM (inactive); with SW-620 it was 4.85 µM (inactive); in the experiment on U-251, 12.8 µM (inactive); in the experiment with CCRF-CEM it was 1.98 µM (inactive). Further, the GI50 with MDA-MB-435 is 25.3 µM (inactive); in the experiment with UACC-62 it was 2.95 µM (inactive); with ACHN, 6.01 µM (inactive); with NCI-H522, 2.12 µM (inactive); in the experiment with HCT-116 it was 2.82 µM (inactive); in the experiment with NCI-H23 it was 28.2 µM (inactive). Also, in the experiment with M14, the GI50 is 28.3 µM (inactive).
For the molecule `CCOC(=O)C1=C(C)N(c2ccc(Cl)cc2)C2(O)C=CC(=O)C3C(=O)N(c4ccccc4)C(=O)C132` (stereo unspecified), the GI50 in the experiment with MCF7 is 1.62 µM (inactive); in the experiment on RPMI-8226, 1.07 µM (active); in the experiment on IGROV-1, 1.54 µM (inactive); with MOLT-4, 1.6 µM (inactive); with COLO 205, 1.67 µM (inactive); in the experiment on SF-295, 2.19 µM (inactive). The GI50 is 2.35 µM (inactive) in the experiment on MDA-N; 2.3 µM (inactive) in the experiment with NCI-H460; 1.91 µM (inactive) with EKVX; 1.54 µM (inactive) with SW-620; 1.87 µM (inactive) in the experiment on U-251; 0.476 µM (active) in the experiment with CCRF-CEM. In addition, the GI50 with MDA-MB-435 is 2.23 µM (inactive); with UACC-62 it was 1.59 µM (inactive); in the experiment with ACHN it was 1.59 µM (inactive); in the experiment on NCI-H522 it was 1.1 µM (active); with HCT-116 it was 1.44 µM (inactive); in the experiment with NCI-H23 it was 1.93 µM (inactive). Also, the GI50 in the experiment on M14 is 1.66 µM (inactive).
Consider `CCCCSc1n/c(=C\c2ccc(N(C)C)cc2)c2nnnn12`, for which the GI50 in the experiment with MCF7, in the experiment on RPMI-8226, in the experiment on HCC 2998, in the experiment with IGROV-1, in the experiment with MOLT-4 and in the experiment with COLO 205 was > 100 µM (inactive) each time. The GI50 with SF-295, in the experiment with MDA-N, in the experiment on NCI-H460, in the experiment with EKVX, in the experiment with SW-620 and with U-251 was > 100 µM (inactive) in each case. Moreover, the GI50 with MDA-MB-435, in the experiment with UACC-62, with ACHN, with NCI-H522, in the experiment with HCT-116 and in the experiment on NCI-H23 was > 100 µM (inactive) throughout. In the experiment with M14, the GI50 is > 100 µM (inactive).
On to `O=C1CC(=O)NC(NN2C(=O)CSC2C(=O)c2ccco2)=N1` (stereo unspecified), for which the GI50 in the experiment with MCF7, with RPMI-8226, in the experiment on HCC 2998, in the experiment on IGROV-1, in the experiment with MOLT-4 and with COLO 205 was > 100 µM (inactive) in each case. Further, the GI50 in the experiment on SF-295 is 78.7 µM (inactive); in the experiment with MDA-N, > 100 µM (inactive); in the experiment on NCI-H460 it was > 100 µM (inactive); with SW-620 it was > 100 µM (inactive); in the experiment on U-251, > 100 µM (inactive); in the experiment with CCRF-CEM it was > 100 µM (inactive). The GI50 with MDA-MB-435, in the experiment with UACC-62, in the experiment on ACHN, in the experiment on NCI-H522, in the experiment with HCT-116 and in the experiment with NCI-H23 was > 100 µM (inactive) throughout. In addition, the GI50 in the experiment with M14 is > 100 µM (inactive).
`CC(C)(C)NCC(O)c1ccc(O)c(CO)n1` (stereo unspecified): the GI50 with MCF7, in the experiment on RPMI-8226, in the experiment with HCC 2998, in the experiment on IGROV-1, in the experiment on MOLT-4 and in the experiment with COLO 205 was > 100 µM (inactive) each time. Further, the GI50 with SF-295, in the experiment with MDA-N, in the experiment on NCI-H460, with EKVX, in the experiment with SW-620 and with U-251 was > 100 µM (inactive) throughout. The GI50 in the experiment on MDA-MB-435, in the experiment with UACC-62, in the experiment on ACHN, in the experiment with NCI-H522, in the experiment on HCT-116 and in the experiment on NCI-H23 was > 100 µM (inactive) in each case. The GI50 with M14 is > 100 µM (inactive).
Consider `CCSCC(=O)N1CCc2c([nH]c3ccccc23)C1=O`, for which the GI50 in the experiment on MCF7 is 96.6 µM (inactive); in the experiment with HCC 2998, > 100 µM (inactive); in the experiment with IGROV-1, > 100 µM (inactive); in the experiment on MOLT-4 it was > 100 µM (inactive); with COLO 205, > 100 µM (inactive); in the experiment with SF-295, > 100 µM (inactive). The GI50 was > 100 µM (inactive) in the experiment on MDA-N; > 100 µM (inactive) with NCI-H460; 12.6 µM (inactive) with EKVX; > 100 µM (inactive) with SW-620; > 100 µM (inactive) with U-251; > 100 µM (inactive) with CCRF-CEM. Moreover, the GI50 in the experiment with MDA-MB-435 was > 100 µM (inactive); in the experiment on UACC-62, 97.5 µM (inactive); with ACHN it was > 100 µM (inactive); in the experiment with NCI-H522, 64.4 µM (inactive); in the experiment on HCT-116, > 100 µM (inactive); with NCI-H23, > 100 µM (inactive). The GI50 in the experiment on M14 was > 100 µM (inactive).
As to `COc1ccc(-c2c(N)n(-c3nc4ccccc4s3)c(=O)c3cc([N+](=O)[O-])ccc23)cc1`, the GI50 in the experiment on MCF7 is 44.8 µM (inactive); in the experiment on RPMI-8226, 1.81 µM (inactive); with MOLT-4, 3.18 µM (inactive); in the experiment on SF-295, 22.3 µM (inactive); in the experiment on MDA-N it was 70.5 µM (inactive); in the experiment on NCI-H460, 3.69 µM (inactive). Also, the GI50 in the experiment on EKVX is 14 µM (inactive); with SW-620, 19.7 µM (inactive); in the experiment on U-251, 7.6 µM (inactive); in the experiment on CCRF-CEM, 4.44 µM (inactive); in the experiment on MDA-MB-435 it was 19 µM (inactive); with UACC-62, > 100 µM (inactive). Moreover, the GI50 in the experiment on ACHN is 22 µM (inactive); in the experiment with NCI-H522 it was 10.7 µM (inactive); in the experiment with HCT-116, 20.1 µM (inactive); with NCI-H23, 13.8 µM (inactive); with M14, 17.8 µM (inactive).
Turning to `CCOC(=O)CCC(NC(=O)OCc1ccccc1)C(=O)NC(CCC(=O)OCC)C(=O)NC(Cc1ccc([N+](=O)[O-])cc1)C(=O)NC(CCC(=O)OCC)C(=O)NC(CCC(=O)OCC)C(=O)OCC` (stereo unspecified) (Cbz-E(OEt)E(OEt)[Phe(4-NO2)]E(OEt)E(OEt)-OEt; configuration not given here), the GI50 in the experiment with MCF7, in the experiment with RPMI-8226, in the experiment on IGROV-1, in the experiment on MOLT-4, in the experiment with COLO 205 and in the experiment with SF-295 was > 100 µM (inactive) each time. Further, the GI50 in the experiment with MDA-N, with NCI-H460, in the experiment on EKVX, in the experiment on SW-620, in the experiment on U-251 and in the experiment on CCRF-CEM was > 100 µM (inactive) each time. Also, the GI50 with MDA-MB-435, in the experiment on UACC-62, with ACHN, with NCI-H522, in the experiment on HCT-116 and in the experiment with NCI-H23 was > 100 µM (inactive) throughout.
